Measurements taken from patent US20100130512A1, “FUSED-RING H[…]” (RENSSELAER POLYTECHNIC INSTITUTE, priority 2007, published 2010).
Where two headings read alike, the source gives them in different places.

Key:
[1] = target: T1, human opioid receptor (κ) (Homo sapiens, UniProt P41145); assay: Opioid receptor binding, [3H]U69,593 (κ)
T1 construct: expressed in transfected cells

[2] = target: T2, human opioid receptor (δ) (Homo sapiens, UniProt P41143); assay: Opioid receptor binding, [3H]naltrindole (δ)
T2 construct: expressed in transfected cells
T2 sequence (P41143 whole entry): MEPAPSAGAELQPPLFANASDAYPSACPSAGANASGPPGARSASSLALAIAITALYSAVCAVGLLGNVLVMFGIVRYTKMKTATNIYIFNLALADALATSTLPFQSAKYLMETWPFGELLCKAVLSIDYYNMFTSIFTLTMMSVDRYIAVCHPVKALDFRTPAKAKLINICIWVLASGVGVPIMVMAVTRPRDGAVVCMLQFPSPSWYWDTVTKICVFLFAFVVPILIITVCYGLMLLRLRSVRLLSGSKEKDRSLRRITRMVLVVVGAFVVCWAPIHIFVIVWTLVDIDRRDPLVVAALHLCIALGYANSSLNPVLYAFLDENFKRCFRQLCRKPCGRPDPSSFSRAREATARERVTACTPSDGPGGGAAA

[3] = target: T3, human opioid receptor (μ) (Homo sapiens, UniProt P35372); assay: Opioid receptor binding, [3H]DAMGO (μ)
T3 construct: expressed in transfected cells
T3 sequence (P35372 whole entry): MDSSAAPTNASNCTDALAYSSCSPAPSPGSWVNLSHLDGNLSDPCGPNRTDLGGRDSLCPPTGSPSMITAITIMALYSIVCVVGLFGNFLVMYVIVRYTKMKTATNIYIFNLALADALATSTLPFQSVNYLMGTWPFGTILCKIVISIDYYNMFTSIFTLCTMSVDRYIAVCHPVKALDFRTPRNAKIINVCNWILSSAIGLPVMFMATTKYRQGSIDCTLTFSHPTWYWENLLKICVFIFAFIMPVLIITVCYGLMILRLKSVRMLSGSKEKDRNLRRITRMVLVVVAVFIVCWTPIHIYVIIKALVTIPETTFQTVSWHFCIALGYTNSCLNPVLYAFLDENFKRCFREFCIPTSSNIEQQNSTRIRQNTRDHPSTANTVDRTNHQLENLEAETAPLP

mice = conditions: cited from earlier work; for duration of action: 1 mg/kg ip in mice
human κ opioid receptor = target: T4, human κ opioid receptor (Homo sapiens, UniProt P41145); assay: [35S]GTPγS binding assay, κ; assay type: biochemical; conditions: agonist/antagonist character; antagonism vs 100 nM U50,488
T4 construct: expressed in transfected cells
T4 sequence (P41145 whole entry): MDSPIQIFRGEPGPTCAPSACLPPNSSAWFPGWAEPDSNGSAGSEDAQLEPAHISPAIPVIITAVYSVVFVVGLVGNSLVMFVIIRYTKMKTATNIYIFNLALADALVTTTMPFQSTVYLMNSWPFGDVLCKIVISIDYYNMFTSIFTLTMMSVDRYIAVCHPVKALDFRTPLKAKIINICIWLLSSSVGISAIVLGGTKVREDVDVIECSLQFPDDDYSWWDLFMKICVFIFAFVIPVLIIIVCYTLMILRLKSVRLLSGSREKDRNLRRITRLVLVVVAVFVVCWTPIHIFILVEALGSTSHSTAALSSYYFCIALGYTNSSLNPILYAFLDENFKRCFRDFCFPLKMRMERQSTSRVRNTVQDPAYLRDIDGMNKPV

human μ opioid receptor = target: T5, human μ opioid receptor (Homo sapiens, UniProt P35372); assay: [35S]GTPγS binding assay, μ; assay type: biochemical; conditions: agonist/antagonist character; antagonism vs 200 nM DAMGO
T5 construct: expressed in transfected cells
T5 sequence (P35372 whole entry): as the sequence (P35372 whole entry) above

κ opioid receptors = conditions: cyclazocine series; cited from earlier work
guinea pig μ receptors = conditions: cyclazocine series; μ printed as ∥; cited from earlier work
[4] = CHO cell membranes, 1 nM [3H]U69,593, mean±SEM, read-out: Ki [3H]U69,593 (K)
[5] = read-out: Ki [3H]Naltrindole (δ), CHO cell membranes, 0.2 nM [3H]naltrindole, mean±SEM
[6] = read-out: Ki [3H]DAMGO (μ), CHO cell membranes, […] [3H]DAMGO, mean±SEM

T1 sequence (P41145 whole entry): as the sequence (P41145 whole entry) above

Which Ki [1, 4] does the source give for `CC1C2Cc3ccc4c(NCc5ccccc5)ncnc4c3C1(C)CCN2CC1CC1` (centres unmarked) [Example 12] here?
The Ki was 240 ± 1.8 nM.

And the Ki [2]?
Its Ki is 1500 ± 68 nM.

What about the Ki [3] of the same compound?
The Ki was 44 ± 0.76 nM.

With `CC1C2Cc3ccc(C(N)=O)c(N)c3C1(C)CCN2CC1CC1` (mixture of isomers) [Example 6, Cis-(±)-3-(cyclopropylmethyl)-1,2,3,4,5,6-hexahydro-6,11-dimethyl-7-amino-2,6-methano-3-benzazocine-8-carboxamide] as the compound, how does the Ki [1] read?
Its Ki is 0.7 ± 0.036 nM.

And the Ki [2]?
The Ki was 35 ± 0.036 nM.

What about the Ki [3] of the same compound?
The Ki was 0.55 ± 0.029 nM.

With `C[C@H]1C2Cc3cc(N)c(C(N)=O)cc3[C@@]1(C)CCN2CC1CC1` (racemic) [Example 7, Cis-(±)-3-(cyclopropylmethyl)-1,2,3,4,5,6-hexahydro-6,11-dimethyl-9-amino-2,6-methano-3-benzazocine-8-carboxamide] as the compound, how does the Ki [1] read?
Its Ki is 32 ± 1.7 nM.

What about the Ki [2] of the same compound?
The Ki was 2000 ± 12 nM.

What about the Ki [3] of the same compound?
The Ki was 88 ± 5.2 nM.

With `C[C@H]1C2Cc3ccc4c(=O)[nH]cnc4c3[C@@]1(C)CCN2CC1CC1` [Example 8] as the compound, how does the Ki [1, 4] read?
Its Ki is 160 ± 7.1 nM.

What about the Ki [2, 5] of the same compound?
The Ki was 2000 ± 49 nM.

And the Ki [3, 6]?
Its Ki is 270 ± 33 nM.

For `C[C@H]1[C@H]2Cc3ccc(O)cc3[C@]1(C)CCN2CC1CC1` [cyclazocine], which duration of action (mice) is on record?
Its duration of action is 2 h.

Which Ki [1, 4] does the source give for `CC1C2Cc3cc4ncnc(NCc5ccccc5)c4cc3C1(C)CCN2CC1CC1` (centres unmarked) [Example 13] here?
Its Ki is 48 ± 2.3 nM.

What about the Ki [2] of the same compound?
The Ki was 1000 ± 37 nM.

And the Ki [3]?
The Ki was 88 ± 7.2 nM.

Which “GTPγS data, KOR” value (human κ opioid receptor) does the source give for `CC1C2Cc3ccc4c(N)ncnc4c3C1(C)CCN2CC1CC1` (centres unmarked) [Example 10] here?
The value was “MOR and KOR antagonist”.

And the Ki [1, 4]?
The Ki was 1 ± 0.071 nM.

And the Ki [2]?
The Ki was 120 ± 8.5 nM.

What about the “GTPγS data, MOR” value (human μ opioid receptor) of the same compound?
Its value is “MOR and KOR antagonist”.

What about the Ki [3] of the same compound?
The Ki was 0.55 ± 0.018 nM.

For `C[C@H]1C2Cc3cc4nn[nH]c4cc3[C@@]1(C)CCN2CC1CC1` [Example 30], which “GTPγS data, KOR” value (human κ opioid receptor) is on record?
The value was “agonist”.

And the Ki [1, 4]?
Its Ki is 0.81 ± 0.19 nM.

And the Ki [2, 5]?
Its Ki is 51 ± 7.8 nM.

And the “GTPγS data, MOR” value (human μ opioid receptor)?
Its value is “antagonist”.

What about the Ki [3, 6] of the same compound?
Its Ki is 10 ± 1 nM.

For `CC1C2Cc3cc4ncnc(N)c4cc3C1(C)CCN2CC1CC1` (centres unmarked) [Example 11], which Ki [1, 4] is on record?
The Ki was 560 ± 23 nM.

What about the inhibition at 10 µM ([2]; read-out: inh. of [3H]Naltrindole (δ) binding, at 10 μM) of the same compound?
Its inhibition at 10 µM is 47%.

And the Ki [3]?
The Ki was 890 ± 39 nM.

With `CC1C2Cc3cc4nc[nH]c4cc3C1(C)CCN2CC1CC1` (centres unmarked) [Example 34] as the compound, how does the Ki [1, 4] read?
The Ki was 0.063 ± 0.0016 nM.

What about the Ki [2] of the same compound?
The Ki was 5.1 ± 0.65 nM.

What about the “GTPγS data, MOR” value (human μ opioid receptor) of the same compound?
Its value is “MOR weak agonist/antagonist, KOR”.

What about the Ki [3] of the same compound?
The Ki was 0.31 ± 0.05 nM.

Which Ki [1, 4] does the source give for `CC1C2Cc3ccc4c(NCCc5ccc(-c6ccccc6)cc5)ncnc4c3C1(C)CCN2CC1CC1` (centres unmarked) [Example 14] here?
Its Ki is 8.6 ± 1.5 nM.

And the Ki [2]?
Its Ki is 52 ± 2.6 nM.

What about the Ki [3] of the same compound?
Its Ki is 6.9 ± 0.33 nM.

For `C[C@H]1C2Cc3ccc4[nH]nnc4c3[C@@]1(C)CCN2CC1CC1` [Example 29], which “GTPγS data, KOR” value (human κ opioid receptor) is on record?
The value was “agonist”.

What about the Ki [1, 4] of the same compound?
Its Ki is 0.23 ± 0.009 nM.

And the Ki [2, 5]?
Its Ki is 46 ± 2.6 nM.

And the “GTPγS data, MOR” value (human μ opioid receptor)?
Its value is “antagonist”.

And the Ki [3, 6]?
Its Ki is 1.4 ± 0.043 nM.

For `CC1C2Cc3cc4[nH]c(=O)[nH]c4cc3C1(C)CCN2CC1CC1` (centres unmarked) [Example 36], which Ki [1, 4] is on record?
The Ki was 12 ± 1.3 nM.

What about the Ki [2] of the same compound?
The Ki was 730 ± 8.3 nM.

What about the Ki [3] of the same compound?
Its Ki is 60 ± 7.9 nM.

What does the source list for `C[C@H]1C2Cc3cc4nc[nH]c(=O)c4cc3[C@@]1(C)CCN2CC1CC1` [Example 9]?
Ki [1, 4]: 12 ± 0.65 nM; Ki [2, 5]: 780 ± 32 nM; Ki [3, 6]: 170 ± 6.7 nM

Which results are given for `CC1C2Cc3cc4ncnc(NCCc5ccc(-c6ccccc6)cc5)c4cc3C1(C)CCN2CC1CC1` (centres unmarked) [Example 15]?
Ki [1, 4]: 140 ± 4.4 nM; Ki [2]: 410 ± 61 nM; Ki [3]: 28 ± 1.9 nM

Which “affinity for κ opioid receptors” value (κ opioid receptors) does the source give for `C[C@H]1C2Cc3ccc(C(N)=O)cc3[C@@]1(C)CCN2CC1CC1` [Example 8-CAC, 8-carboxamidocyclazocine] here?
The value was “high affinity”.

What about the duration of action (mice) of the same compound?
The duration of action was 15 h.

And the antinociception activity (mice; studies in vivo)?
Its antinociception activity is “high antinociception activity”.

And the “affinity for μ opioid receptors” value (guinea pig μ receptors)?
Its value is “high affinity”.

What does the source list for `Cc1nc2cc3c(cc2[nH]1)CC1C(C)C3(C)CCN1CC1CC1` (centres unmarked) [Example 35]?
GTPγS data, KOR (human κ opioid receptor): agonist; Ki [1, 4]: 0.05 ± 0.002 nM; Ki [2]: 18 ± 0.9 nM; GTPγS data, MOR (human μ opioid receptor): MOR agonist/weak antagonist; KOR; Ki [3]: 0.77 ± 0.051 nM

For `C[C@H]1C2Cc3ccc4c(N)onc4c3[C@@]1(C)CCN2CC1CC1` [Example 43], which Ki [1, 4] is on record?
Its Ki is 0.65 ± 0.005 nM.

What about the Ki [2] of the same compound?
The Ki was 99 ± 10 nM.

What about the Ki [3] of the same compound?
Its Ki is 0.75 ± 0.038 nM.
